IC50 data for 13 molecules are collected here from ChEMBL document CHEMBL4028835, “Identification of low micromolar dual inhibitors for aldose reductase (ALR2) and poly (ADP-ribose) polymerase (PARP-1) using structure based design approach” (Bioorg Med Chem Lett, 2017).

A value given as a limit tells only on which side of the number the result lay.

As a reminder, the IC50 is the point on the concentration scale where inhibition reaches its midpoint.

The first assay deals with Poly [ADP-ribose] polymerase 1 (Homo sapiens, UniProt P09874). The assay can be described thus: Inhibition of PARP1 (unknown origin) using activated DNA as substrate measured after 60 mins in presence of biotinylated NAD by colorimetric assay.
Chain of Poly [ADP-ribose] polymerase 1 (P09874 whole entry): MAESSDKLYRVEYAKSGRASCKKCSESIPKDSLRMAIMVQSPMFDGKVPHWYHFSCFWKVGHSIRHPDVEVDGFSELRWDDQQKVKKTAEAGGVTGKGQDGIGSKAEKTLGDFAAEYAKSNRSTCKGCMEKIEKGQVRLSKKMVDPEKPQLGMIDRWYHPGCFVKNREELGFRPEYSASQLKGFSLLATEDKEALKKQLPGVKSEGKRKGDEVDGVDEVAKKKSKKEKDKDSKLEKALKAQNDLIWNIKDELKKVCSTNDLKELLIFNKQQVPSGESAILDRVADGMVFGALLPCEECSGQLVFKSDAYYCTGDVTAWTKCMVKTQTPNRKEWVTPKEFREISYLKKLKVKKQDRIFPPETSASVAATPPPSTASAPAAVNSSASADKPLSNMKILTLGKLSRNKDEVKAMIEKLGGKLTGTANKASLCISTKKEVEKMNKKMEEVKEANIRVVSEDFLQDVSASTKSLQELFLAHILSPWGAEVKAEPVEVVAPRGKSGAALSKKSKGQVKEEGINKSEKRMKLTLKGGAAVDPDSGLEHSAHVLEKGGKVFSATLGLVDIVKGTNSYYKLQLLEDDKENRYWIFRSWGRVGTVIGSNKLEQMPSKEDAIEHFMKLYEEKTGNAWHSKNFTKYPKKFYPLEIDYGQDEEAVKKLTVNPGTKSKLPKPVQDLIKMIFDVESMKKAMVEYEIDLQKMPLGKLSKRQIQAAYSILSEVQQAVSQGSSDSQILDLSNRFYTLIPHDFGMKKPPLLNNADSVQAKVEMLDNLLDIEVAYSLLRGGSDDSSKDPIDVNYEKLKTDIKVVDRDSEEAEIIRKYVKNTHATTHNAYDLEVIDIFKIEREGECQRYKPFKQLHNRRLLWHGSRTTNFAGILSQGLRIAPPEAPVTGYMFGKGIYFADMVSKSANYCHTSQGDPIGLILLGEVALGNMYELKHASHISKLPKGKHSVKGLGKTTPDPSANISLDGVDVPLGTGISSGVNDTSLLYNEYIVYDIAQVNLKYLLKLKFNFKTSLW
For the molecule `O=C1NC(=O)/C(=C/c2cn(Cc3ccc(Cl)cc3)c3ccccc23)S1`, the half-inhibitory concentration (IC50) is more than 100 µM.

With `CC(C)c1ccc(Cn2cc(C=C3SC(=O)NC3=O)c3ccccc32)cc1`, the 50% inhibitory concentration (IC50) was found to be 0.74 µM.

Take `O=C1NC(=O)/C(=C/c2cn(Cc3ccccc3)c3ccccc23)S1`: the IC50 was more than 100 µM.

As to `O=C1NC(=O)/C(=C/c2c[nH]c3ccccc23)S1`, the 50% inhibitory concentration (IC50) was more than 100 µM.

Test system in a further assay: not listed separately
The assay can be described thus: Inhibition of goat lenses ALR2 using glyceraldehyde as substrate measured for 5 mins by UV-spectrophotometric method. Details: species or system Capra hircus.
Molecule `O=C1NC(=O)/C(=C/c2cn(Cc3ccc(Cl)cc3)c3ccccc23)S1` gave an IC50 of 15.4 µM.

Molecule `CC(C)c1ccc(Cn2cc(C=C3SC(=O)NC3=O)c3ccccc32)cc1` yielded a 50% inhibitory concentration (IC50) of 40 µM.

The molecule `CCc1ccc(Cn2cc(C=C3SC(=O)NC3=O)c3ccccc32)cc1` returned a concentration for half-maximal inhibition (IC50) of 13.9 µM.

`O=C1NC(=O)/C(=C/c2cn(Cc3ccccc3)c3ccccc23)S1` returned a half-inhibitory concentration (IC50) of 6.57 µM.

Consider `Cc1ccc(Cn2cc(C=C3SC(=O)NC3=O)c3ccccc32)cc1`, for which the half-maximal inhibitory concentration (IC50) was determined as 11.5 µM.

`O=C1NC(=O)/C(=C/c2cn(Cc3ccc(F)cc3)c3ccccc23)S1` came in with an IC50 of 1.7 µM.

As for `O=C1NC(=O)/C(=C/c2cn(Cc3cccc(Cl)c3)c3ccccc23)S1`, the 50% inhibitory concentration (IC50) was found to be 23 µM.

With `CC(/C=C1\SC(=S)N(CC(=O)O)C1=O)=C\c1ccccc1`, the IC50 is 0.09 µM.

As to `O=C1NC(=O)/C(=C/c2cn(Cc3ccc(Cl)cc3Cl)c3ccccc23)S1`, 24.4 µM corresponded to half-maximal inhibition (IC50).

The molecule `O=C1NC(=O)/C(=C/c2cn(Cc3ccccc3Cl)c3ccccc23)S1` registered a half-maximal inhibitory concentration (IC50) of 4.72 µM.

As to `CC(C)(C)c1ccc(Cn2cc(/C=C3\SC(=O)NC3=O)c3ccccc32)cc1`, the IC50 turned out to be 48.5 µM.

With `O=C1NC(=O)/C(=C/c2c[nH]c3ccccc23)S1`, the half-maximal inhibitory concentration (IC50) was 16.4 µM.

In turn, `O=C1NC(=O)/C(=C/c2cn(Cc3cccc(C(F)(F)F)c3)c3ccccc23)S1` came in with an IC50 of 22.9 µM.
